Laboratory results as given in patent publication US20260174762A1, “OLCEGEPANT FOR TREATING SEPSIS” (Boehringer Ingelheim International GmbH, priority 2022, published 2026).

Columns and labels:
mouse CLP model = details: WO 2018/154015, cited from earlier work
pig sepsis model = details: intravenous bolus injection; cited from earlier work
[1] = test system: CLP-induced polymicrobial sepsis; experiment: Chronic model of CLP: survival rate; assay type: in vivo, mouse; details: 30 mg/kg s.c. 2 h after CLP induction and once daily from day 1 to day 6; 10 mice per group
Protocol: Two models were performed: • A cute model of CLP lasting 24 h to measure vascular hyper-permeability in lung, liver, kidney and heart tissue. The vascular hyper-permeability was followed by the extravasation of Evans blue injected intravenously and diffused and accumulated into the tissue. The vascular hyper-permeability was expressed as μg of Evans blue in 100 mg of dry tissue. • Chronic model of CLP lasting 8 days. CLP is performed on day 0 and the survival rate is followed for 8 consecutive days
On day 0, mice were anesthetized with ketamine (80 mg kg^−1, i.p.) and xylazine (10 mg kg^−1, i.p.). A 1-1.5 cm abdominal midline incision was made, and the caecum was located and tightly ligated at half the distance between distal pole and the base of the caecum with 4-0 silk suture (mild grade). The caecum was punctured through-and-through once with a 21-gauge needle after medium ligation. A small amount of stool was extruded to ensure that the wounds were patent. Then the cecum was replaced in its original position within the abdomen, which was closed with sutures in layers. For negative control animals, a sham surgery was performed: sham-operated animals underwent identical laparotomy but without cecal ligation or puncture. The animals were resuscitated immediately after surgery with 1 mL subcutaneous normal saline and returned to their cages. […]

For `NCCCC[C@H](NC(=O)[C@@H](Cc1cc(Br)c(O)c(Br)c1)NC(=O)N1CCC(N2Cc3ccccc3NC2=O)CC1)C(=O)N1CCN(c2ccncc2)CC1` [olcegepant], the “mice rescued at day 4” value (mouse CLP model; 100 mg/kg subcutaneous twice daily, mouse CLP model) is given as 20%, the mice rescued (mouse CLP model; subcutaneous bolus injection, mouse sepsis model) is given as 2 out of 10 and the survival improvement (pig sepsis model) is given as “did not show any survival improvement”. The “survival rate at day 8” value [1] was 20%.
